Results reported in patent US8912144B2, “Method for treating stroke via administration of NEP1-40 and inosine” (Children's Medical Center Corporation, priority 2003, dated 2014).

System: corticospinal neurons (CSNs/CSMNs)
Experiment: Laser-capture microdissection and Illumina microarray gene expression in corticospinal neurons contralateral to stroke
Format: in vivo, rat
Procedure: In a separate group of animals (n=20), layer V pyramidal cells of the sensorimotor cortex were retrogradely labeled by injecting Alexa-Fluor-488-conjugated cholera toxin B subunit (CTB; 300 U/μl in sterile saline) into the cervical spinal cord. For this, animals were anesthetized with a combination of ketamine and Domitor (medetomidine) and a laminectomy was performed at the cervical level of the spinal cord (C2-C4). CTB was stereotaxically delivered into four sites lateral to the corticospinal tract. Injections (1.3 μl) were spaced 1 mm apart on the rostro-caudal axis, and were made 0.5 mm to the left and right of the midline. After allowing two weeks for transport of the tracer, we performed either sham surgery with no treatment (n=6) or stroke surgery combined with saline (n=3) or inosine (n=4) treatment as described above. Seven days later, animals were decapitated under transient gas anesthesia, brains were removed and rinsed in cold RPMI medium, and a tissue block containing the sensorimotor cortex was dissected and placed in OCT Tissue Tek Medium (Sakura Finetek USA Inc., CA) on dry ice within five minutes of death. Ten μm sections were cut onto precleaned Gold Seal RITE-ON glass slides (Gold Seal Prod-ucts, Portsmouth, N.H.), placed on dry ice, and rapidly stored at −80° C.
Slide-mounted sections were thawed and dehydrated in RNAse-free ethanol gradients and xylene. Retro-gradely labeled, fluorescent cortical pyramidal cells in the undamaged hemisphere were individually captured using the Arcturus VERITAS system. ≧500 cells were collected from each animal and stored in Arcturus extraction buffer at −80° C. Total RNA was extracted from cells using the Micro-to-Midi TotalRNA Purification System (Invitrogen, Carlsbad Calif.) and double-amplified using the TargetAmp 2-Round Aminoallyl-aRNA Amplification kit 1.0 (Epicentre, Madison, Wis.). Amplified RNA was checked for average fragment length using the Agilent RNA 6000 Nano LabChip kit (Agilent Technologies, Santa Clara, Calif.) and then biotinylated and hybridized (1 μg) on Illumina RatRef-12 Expression BeadChip arrays (Illumina, San Diego Calif.), querying the expression of >22,000 RefSeq-curated rat transcripts. Results were obtained from a total of 15 samples representing 6 untreated controls, 4 animals with stroke treated with saline and 5 animals with stroke treated with inosine. Slides were processed and scanned with Illumina BeadStation platform according to the manufacturer protocol.
Raw data was analyzed using Bioconductor packages (www.bioconductor.org, (Gentleman et al., 2004)). Low level quality-control analysis was performed using inter-array Pearson correlation and clustering based on variance. Two arrays (1 saline and 1 inosine-treated) were outliers and were excluded from the analysis. Data was normalized using quantile normalization, and analysis of differential expression was performed using a linear model fitting (LIMMA package, (Smyth, 2005). Differentially expressed genes were classified according to gene ontology using Bioconductor packages and online tools (DAVID, http://david.abcc.ncifcrf.gov/). Pathway analysis was carried out using Ingenuity Pathway Analysis (Ingenuity Systems, www.ingenuity.com).

OC[C@H]1O[C@@H](n2cnc3c(O)ncnc32)[C@H](O)[C@@H]1O [inosine]
Signal Intensity, MGC94053 (ILMN_53763, inosine after stroke): 469
Fold-Induction Stroke, ino vs. cntrl, Cnot7 (ILMN_53955): 0.60
Signal Intensity, Cnot7 (ILMN_53955, inosine after stroke): 427
Fold-Induction Stroke, ino vs. cntrl, Rnf11 (ILMN_54109): 0.49
Signal Intensity, Rnf11 (ILMN_54109, inosine after stroke): 825
Fold-Induction Stroke, ino vs. cntrl, Scara3 (ILMN_54123): 0.78
Signal Intensity, Scara3 (ILMN_54123, inosine after stroke): 470
Fold-Induction Stroke, ino vs. cntrl, Gabarapl2 (ILMN_54140): 0.75
Signal Intensity, Gabarapl2 (ILMN_54140, inosine after stroke): 1324
Fold-induction CSMNs: Vim (ILMN_54242, over and above inosine's effect of decreasing stroke-induced changes): 1.96 fold
Fold-Induction Stroke, ino vs. cntrl, LOC501145 (ILMN_54288): 0.70
Signal Intensity, LOC501145 (ILMN_54288, inosine after stroke): 626
Fold-Induction Stroke, ino vs. cntrl, Echdc1 (ILMN_54458): 0.67
Signal Intensity, Echdc1 (ILMN_54458, inosine after stroke): 531
Fold-Induction Stroke, ino vs. cntrl, LOC498407 (ILMN_54747): 0.64
Signal Intensity, LOC498407 (ILMN_54747, inosine after stroke): 1261
Fold-Induction Stroke, ino vs. cntrl, Fuca2 (ILMN_55057): 0.56
Signal Intensity, Fuca2 (ILMN_55057, inosine after stroke): 662
Fold-Induction Stroke, ino vs. cntrl, Grm3 (ILMN_55270): 0.50
Signal Intensity, Grm3 (ILMN_55270, inosine after stroke): 387
Fold-induction CSMNs: Rnaset2 (ILMN_55431, over and above inosine's effect of decreasing stroke-induced changes): 1.88 fold
Fold-Induction, complement cascade gene C1qg (ILMN_55502, LCM-captured CSMNs contralateral a stroke): 3.96 fold
Fold-induction CSMNs: C1qg (ILMN_55502, over and above inosine's effect of decreasing stroke-induced changes): 2.73 fold
Fold-Induction Stroke, ino vs. cntrl, Map2k4 (ILMN_55667): 0.65
Signal Intensity, Map2k4 (ILMN_55667, inosine after stroke): 9089
Fold-Induction Stroke, ino vs. cntrl, LOC498618 (ILMN_55685): 0.49
Signal Intensity, LOC498618 (ILMN_55685, inosine after stroke): 3089
Fold-Induction, complement cascade gene C1s (ILMN_55706, LCM-captured CSMNs contralateral a stroke): 2.07 fold
Fold-induction CSMNs: C1s (ILMN_55706, over and above inosine's effect of decreasing stroke-induced changes): 2.03 fold
Fold-induction CSMNs: Bzrp (ILMN_55731, over and above inosine's effect of decreasing stroke-induced changes): 2.38 fold
Fold-Induction Stroke, ino vs. cntrl, Klhl2 (ILMN_55879): 0.78
Signal Intensity, Klhl2 (ILMN_55879, inosine after stroke): 516
Fold-Induction Stroke, ino vs. cntrl, Tceal1 (ILMN_55905): 0.57
Signal Intensity, Tceal1 (ILMN_55905, inosine after stroke): 286
Fold-Induction Stroke, ino vs. cntrl, LOC502317 (ILMN_55909): 0.40
Signal Intensity, LOC502317 (ILMN_55909, inosine after stroke): 689
Fold-Induction Stroke, ino vs. cntrl, Nr2f1 (ILMN_55914): 0.52
Signal Intensity, Nr2f1 (ILMN_55914, inosine after stroke): 526
Fold-Induction Stroke, ino vs. cntrl, Slc16a1 (ILMN_55995): 0.56
Signal Intensity, Slc16a1 (ILMN_55995, inosine after stroke): 827
Fold-Induction Stroke, ino vs. cntrl, Tpt1 (ILMN_56078): 0.89
Signal Intensity, Tpt1 (ILMN_56078, inosine after stroke): 11229
Fold-Induction Stroke, ino vs. cntrl, Acsl3 (ILMN_56170): 0.50
Signal Intensity, Acsl3 (ILMN_56170, inosine after stroke): 389
Fold-Induction Stroke, ino vs. cntrl, Scn1a (ILMN_56183): 0.88
Signal Intensity, Scn1a (ILMN_56183, inosine after stroke): 517
Fold-Induction Stroke, ino vs. cntrl, Cetn3 (ILMN_56556): 0.63
Signal Intensity, Cetn3 (ILMN_56556, inosine after stroke): 649
Fold-Induction Stroke, ino vs. cntrl, Zfp68 (ILMN_56593): 0.59
Signal Intensity, Zfp68 (ILMN_56593, inosine after stroke): 727
Fold-Induction Stroke, ino vs. cntrl, Pnrc1 (ILMN_56710): 0.65
Signal Intensity, Pnrc1 (ILMN_56710, inosine after stroke): 626
Fold-Induction Stroke, ino vs. cntrl, RGD1308082 (ILMN_56896): 0.62
Signal Intensity, RGD1308082 (ILMN_56896, inosine after stroke): 428
Fold-Induction Stroke, ino vs. cntrl, Scg3 (ILMN_56986): 0.69
Signal Intensity, Scg3 (ILMN_56986, inosine after stroke): 870
Fold-Induction Stroke, ino vs. cntrl, Plp (ILMN_57073): 0.51
Signal Intensity, Plp (ILMN_57073, inosine after stroke): 1222
Fold-induction CSMNs: Serpinb1a (ILMN_57422, over and above inosine's effect of decreasing stroke-induced changes): 2.41 fold
Fold-Induction Stroke, ino vs. cntrl, Lisch7 (ILMN_57520): 0.69
Signal Intensity, Lisch7 (ILMN_57520, inosine after stroke): 484
Fold-Induction Stroke, ino vs. cntrl, Olfm3 (ILMN_57553): 0.62
Signal Intensity, Olfm3 (ILMN_57553, inosine after stroke): 473
Fold-Induction Stroke, ino vs. cntrl, Vmp1 (ILMN_57554): 0.57
Signal Intensity, Vmp1 (ILMN_57554, inosine after stroke): 1305
Fold-Induction Stroke, ino vs. cntrl, Sc4mol (ILMN_57630): 0.52
Signal Intensity, Sc4mol (ILMN_57630, inosine after stroke): 271
Fold-Induction Stroke, ino vs. cntrl, RGD1308373 (ILMN_57697): 0.66
Signal Intensity, RGD1308373 (ILMN_57697, inosine after stroke): 2921
Fold-Induction Stroke, ino vs. cntrl, Gucy1b3 (ILMN_57719): 0.57
Signal Intensity, Gucy1b3 (ILMN_57719, inosine after stroke): 3956
Fold-Induction Stroke, ino vs. cntrl, Tnnc2 (ILMN_57928): 0.48
Signal Intensity, Tnnc2 (ILMN_57928, inosine after stroke): 650
